Results on 15 compounds are retold here after US4316839A, “Imidazodiazepine derivatives” (Hoffman-La Roche Inc., priority 1979, dated 1982).

For orientation: LD50 means the dose expected to kill half of the subjects tested. A low value points to greater toxicity. In general, ED50 refers to the dose at which the effect has come halfway, by size or by number of responders. The low end stands for an effect at a small dose, the high end for a need for a large dose. Usually IC50 stands for the concentration that inhibits the measured activity by half. Read a low IC50 as inhibition by little substance.

Bounds are passed on as bounds.

The test system of data set [1] is diazepam effect in the pentetrazole test. The data set can be described thus: pentetrazole test: antagonism of the diazepam effect in mice. It is filed as in vivo. The note with it: for ED50: Mus musculus, po, mice, diazepam 5 mg/kg i.p. 1 hour and test compound 15 min before pentetrazole 120 mg/kg i.p. The protocol:
This property was used as a basis for the test described hereinafter which permits the determination of compounds which are capable of antagonising the central properties of 1,4-benzodiazepines which have tranquillising activity.
The antagonistic activity of the compounds tested, i.e. their ability to counteract the activity of diazepam in the pentetrazole test, is determined by counting the mice which suffer spasmodic seizures in this test.
(§1) In the following Table there are compiled the results which have been obtained with representative compounds of formula I. The ED50 value is given for each compound listed in the Table. The ED50 is the amount of the test compound in mg/kg (p.o.) which counteracts in 50% of the animals the diazepam effect in the foregoing test. Moreover, the Table contains the IC50 value (defined hereinbefore) for all test compounds listed therein as well as details concerning the acute toxicity of certain compounds (LD50 in mg/kg following single oral administration to mice).

The subject of data set [2] is central activities of diazepam. The experiment in a line: antagonism of the central activities of diazepam (sleep/waking behaviour) in male albino rats. In kind it is in vivo. From the text:
Male albino rats (body weight about 165 g) are used for this test.

Data set [3] is described as follows: acute toxicity following single oral administration to mice. To be noted: mouse, in vivo.
Excerpt: as §1

Data set [4] concerns the target specific benzodiazepine receptors in the cerebral cortex. The data set can be described thus: inhibition of the binding of tritiated diazepam at the specific benzodiazepine receptors in the cerebral cortex. The protocol: The affinity of compounds of formula I to the central benzodiazepine receptors was determined according to the method described in Life Science 20, 2101-2110 (1977) and Science 198, 849-851 (1977). According to this method, the inhibition of the binding of tritiated diazepam at the specific benzodiazepine receptors in the cerebral cortex by test substances is ascertained. The IC50 ("50% inhibiting concentration") is that concentration of the test substance which brings about a 50 percent inhibition of the specific binding of the tritiated diazepam at the specific benzodiazepine receptors in the cerebral cortex.
as §1

Data set [5] has as its system Schistosoma mansoni. The experiment in a line: schistosomicidal activity in infected mice. It is filed as in vivo. The note with it: Mouse; 750 mg/kg p.o. alone. As to the method:
Mice and golden hamsters are infected subcutaneously with 60 cercaria of Schistosoma mansoni. Ca 42 days after the infection, they are treated orally with a single dosage of the compound to be tested. 5 Animals are used per test preparation and dosage. 10 Untreated animals are used as controls. The animals are killed and dissected 2 weeks (hamster) or 3 weeks (mice) after the treatment. Worm pairs in mesenteric veins, portal vein and liver are dissected-out, counted and the condition of the worms (living or dead) is registered. A schistosomicidal activity of a test preparation manifests itself in the appearance of dead worms in the vessels of the liver. Dead worms are never found in untreated control animals. The test is evaluated by calculating the percentage of dead worm pairs in the vessels of the liver in infected, treated animals.
The following representative compounds of formula I were tested in tests described earlier for possible detrimental effects on the schistosomicidal activity of (+)-5-(o-chlorophenyl)-1,3-dihydro-3-methyl-7-nitro-2H-1,4-benzodiazepin-2-one (compound S).

For data set [6], the system named is central activities of flunitrazepam. The data set can be described thus: EEG of the dorsal hippocampus (theta rhythm) in conscious, curarised rats; antagonism of flunitrazepam. In kind it is in vivo. The protocol: Four tests were carried out on conscious, curarised, artifically respirated rats. The bipolar-derived EEG of the dorsal hippocampus served as the measured variable. 10 minutes after the beginning of the derivation flunitrazepam was administered intravenously in a dosage of 0.1 mg/kg. The test substance was likewise administered intravenously in a dosage of 1 mg/kg to one animal 10 minutes and to three animals 30 minutes after the administration of flunitrazepam. The EEGs obtained were analysed continuously in the frequency range according to the rules of the Fourier transformation, whereby each of the computed spectra related to 1 minute.
The normal EEG from the hippocampus of conscious, curarised rats is characterised by a stable theta rhythm of 3.75-4.25 Hertz which remains unchanged at least 3 hours after the beginning of the artificial respiration. Flunitrazepam, in the given dosage, completely suppresses this theta rhythm for about 15 minutes. Thereafter, there appears a rhythm which is slowed down to 2.75-3.25 Hertz, which increases continuously and again attains the normal frequency of 4 Hertz 1 to 1.5 hours after the injection.

Setting [7] is: compounds of formula I with A = group (a).
The mark [8] stands for this setting: 20 mg/kg i.p., then after 30 min diazepam 5 mg/kg i.v.
Where [9] appears, read: thieno derivatives, A = group (b).

As for `CN1C(=O)CN=C(c2ccccc2)c2cc(Cl)ccc21` [diazepam, reference compound], the “protection from spasmodic seizures in the pentetrazole test” value in data set [1] (diazepam 5 mg/kg i.p., more than 900 mice) is “protected all experimental animals from spasmodic seizures”. In data set [2] (diazepam 5 mg/kg i.v.), the “falling asleep / rousing reflex” value is reported as “fall asleep immediately, no longer show rousing reflex”; the “sleep in the lateral position, duration” value was “at least 60 minutes”; the “time to slowly wake up” value was “about 1.5 hours”. For the same compound, in data set [2] (diazepam 10 mg/kg i.p.), the falling asleep entry is recorded as “fall asleep within a few minutes” and the sleep duration is 2 to 3 h.
Turning to `CC(C)OC(=O)c1ncn2c1CN(C)C(=O)c1cc(F)ccc1-2` [Example 4, isopropyl 8-fluoro-5,6-dihydro-5-methyl-6-oxo-4H-imidazo [1,5-a][1,4]benzodiazepine-3-carboxylate], the 50% lethal dose (LD50) in data set [3] is greater than 5000 mg/kg. In data set [1], this compound registered an ED50 of 6.6 mg/kg. Moreover, in data set [4] (setting [7]), the half-inhibitory concentration (IC50) is 3900 nM.
In data set [3], `CCOC(=O)c1ncn2c1CN(C)C(=O)c1cc(F)ccc1-2` [Example 1, ethyl 8-fluoro-5,6-dihydro-5-methyl-6-oxo-4H-imidazo[1,5-a][1,4]benzodiazepine-3-carboxylate] gave an LD50 greater than 5000 mg/kg. The compound also came in with a median effective dose (ED50) in data set [1] of 5.8 mg/kg. For the same compound, the IC50 in data set [4] (setting [7]) was found to be 2500 nM. Moreover, the “Schistosomicidal activity in %” value in data set [5] was 0%.
For `CCOC(=O)c1ncn2c1CN(C)C(=O)c1c(F)cccc1-2` [Example 10, ethyl 7-fluoro-5,6-dihydro-5-methyl-6-oxo-4H-imidazo[1,5-a][1,4]benzodiazepine-3-carboxylate], in data set [3], the LD50 is greater than 5000 mg/kg. Also, in data set [1], the 50% effect level (ED50) was put at a dose of 2.1 mg/kg. In data set [4] (setting [7]), this compound registered an IC50 of 2000 nM.
`CN1C(=O)CN=C(c2ccccc2F)c2cc([N+](=O)[O-])ccc21` [flunitrazepam, reference compound]: the “complete suppression of theta rhythm, duration” value in data set [6] (flunitrazepam 0.1 mg/kg i.v.) is reported as “about 15 minutes”. Also, the “frequency of slowed-down rhythm” value in data set [6] (flunitrazepam 0.1 mg/kg i.v., after suppression phase) is listed as 2.75-3.25 Hertz. In addition, in data set [6] (flunitrazepam 0.1 mg/kg i.v., after the injection), the “time to again attain normal frequency of 4 Hertz” value was in the range of 1 to 1.5 h.
`CCOC(=O)c1ncn2c1C1C=CCN1C(=O)c1c(F)cccc1-2` (stereo not shown) [Example 11, ethyl 8-fluoro-11,13a-dihydro-9-oxo-9H-imidazo[1,5-a]pyrrolo[2,1-c][1,4]benzodiazepine-1-carboxylate] returned an LD50 in data set [3] of 500 to 1000 mg/kg. For the same compound, the 50% effect level in data set [1] (ED50) was put at a dose of 1.8 mg/kg. In data set [4] (setting [7]), this compound registered a 50% inhibitory concentration (IC50) of 2100 nM.
Turning to `CCOC(=O)c1ncn2c1CN(C)C(=O)c1ccccc1-2` [Example 16, ethyl 5,6-dihydro-5-methyl-6-oxo-4H-imidazo[1,5-a][1,4]benzodiazepine-3-carboxylate], the LD50 in data set [3] was greater than 5000 mg/kg. In addition, the 50% effect level in data set [1] (ED50) was put at a dose of 10.9 mg/kg. Besides, in data set [4] (setting [7]), the IC50 amounted to 3000 nM. In addition, in data set [2] (5 mg/kg i.v., 5 or 15 min after diazepam 5 mg/kg i.v. or 30 min after diazepam 10 mg/kg i.p.), the “waking of diazepam-treated animals” value was “the animals stand up immediately and move around”. Besides, the “behaviour after test substance alone” value in data set [2] (20 mg/kg i.p.) was “the animals remain awake and show a normal behaviour”. For the same compound, in data set [2] (setting [8]), the “duration of waking phase” value is “at least 30 minutes”; the “symptoms after subsequent diazepam” value was “in the first 2 minutes after the injection slight sedation and ataxia, but these symptoms rapidly disappear”. Also, the “antagonism of the central activities of diazepam” value in data set [2] (rats, overall finding) is on record as “antagonises the central activities of the known 1,4-benzodiazepine derivative diazepam”.
`CCOC(=O)c1ncn2c1[C@@H]1CCCN1C(=O)c1ccccc1-2` [Example 30, ethyl (S)-11,12,13,13a-tetrahydro-9-oxo-9H-imidazo[1,5-a]pyrrolo[2,1-c][1,4]benzodiazepine-1-carboxylate] returned an LD50 in data set [3] of 1250 to 2500 mg/kg. Besides, in data set [1], the median effective dose (ED50) was 9.3 mg/kg. Further, in data set [4] (setting [7]), the 50% inhibitory concentration (IC50) came out at 6400 nM. Also, in data set [6] (1 mg/kg i.v., 10 or 30 min after flunitrazepam), the “theta rhythm frequency after test substance” value is 4 Hertz. Moreover, the “normalisation of theta rhythm” value in data set [6] (1 mg/kg i.v., 10 or 30 min after flunitrazepam 0.1 mg/kg i.v.) is “immediate, long-lasting normalisation of the described theta rhythm at 4 Hertz”. Besides, the “effect on theta rhythm” value in data set [6] (1 mg/kg i.v., 10 min after flunitrazepam) was “immediately brought about the rhythm suppressed by flunitrazepam, whereby this showed the normal frequency from the outset”; in data set [6] (1 mg/kg i.v., 30 min after flunitrazepam), “accelerated the already, but slowly, re-appearing rhythm immediately to its normal frequency of 4 Hertz”. Also, the “antagonism of the central activities of flunitrazepam” value in data set [6] (rats, overall finding) is “antagonises the central activities of the known 1,4-benzodiazepine derivative flunitrazepam”.
The compound `CN1Cc2c(C#N)ncn2-c2ccccc2C1=O` [Example 18, 5,6-dihydro-5-methyl-6-oxo-4H-imidazo[1,5-a][1,4]benzodiazepine-3-carbonitrile] registered a median lethal dose (LD50) in data set [3] of 1250 mg/kg. The compound further yielded a median effective dose (ED50) in data set [1] of 2.6 mg/kg. Also, in data set [4] (setting [7]), the half-inhibitory concentration (IC50) was 100000 nM.
With `CCOC(=O)c1ncn2c1[C@@H]1CCCN1C(=O)c1c(C)cccc1-2` [Example 29, ethyl (S)-11,12,13,13a-tetrahydro-8-methyl-9-oxo-9H-imidazo[1,5-a]pyrrolo[2,1-c]benzodiazepine-1-carboxylate], the 50% effect level in data set [1] (ED50) was put at a dose of 6.5 mg/kg. Also, the half-maximal inhibitory concentration (IC50) in data set [4] (setting [7]) stood at 5000 nM.
In data set [3], `COC(=O)c1ncn2c1[C@@H]1CCCN1C(=O)c1ccccc1-2` [Example 31, methyl (S)-11,12,13,13a-tetrahydro-9-oxo-9H-imidazo[1,5-a]pyrrolo[2,1-c][1,4]benzodiazepine-1-carboxylate] showed an LD50 of 2000 to 4000 mg/kg. This compound also registered a 50% effective dose (ED50) in data set [1] of 3.5 mg/kg. Also, the IC50 in data set [4] (setting [7]) amounted to 32000 nM.
In data set [1], `CCOC(=O)c1ncn2c1CN(C)C(=O)c1sccc1-2` [Example 36, ethyl 5,6-dihydro-5-methyl-6-oxo-4H-imidazo[1,5-a]thieno[2,3-f][1,4]diazepine-3-carboxylate] came in with an ED50 of 12.6 mg/kg. Moreover, the IC50 in data set [4] (setting [9]) turned out to be 1.1 nM.
For `CCOC(=O)c1ncn2c1[C@@H]1CCCN1C(=O)c1cc(F)ccc1-2` [Example 12, ethyl (S)-7-fluoro-11,12,13,13a-tetrahydro-9-oxo-9H-imidazo[1,5-a]pyrrolo[2,1-c][1,4]benzodiazepine-1-carboxylate], it took a dose of 8.9 mg/kg to reach the 50% effect level in data set [1] (ED50). The IC50 in data set [4] (setting [7]) was 6000 nM.
In turn, `COC(=O)c1ncn2c1[C@@H]1CCCN1C(=O)c1sccc1-2` [Example 35, methyl (S)-10,11,12,12a-tetrahydro-8-oxo-8H-imidazo[5,1-c]pyrrolo[1,2-a]thieno[3,2-e][1,4]diazepine-1-carboxylate] yielded an ED50 in data set [1] of 0.22 mg/kg. In data set [4] (setting [9]), this compound yielded an IC50 of 2.1 nM.
As to `CCOC(=O)c1ncn2c1[C@@H]1CCCN1C(=O)c1c(Cl)cccc1-2` [Example 14, ethyl (S)-8-chloro-11,12,13,13a-tetrahydro-9-oxo-9H-imidazo[1,5-a]pyrrolo[2,1-c][1,4]benzodiazepine-1-carboxylate], in data set [3], the median lethal dose (LD50) fell in the range of 750 to 1500 mg/kg. Also, in data set [1], the 50% effective dose (ED50) is 1 mg/kg. The IC50 in data set [4] (setting [7]) was found to be 1700 nM.
